Laboratory results: patent US9499550B2 (BRISTOL-MYERS SQUIBB COMPANY, priority 2012, dated 2016)
Like-named read-outs stand apart in the source and are kept apart here.

Key:
[1] = test system: HCV genotype 1a (H77 strain) replicon in HUH-7 cells; assay: HCV replicon luciferase reporter assay, genotype 1a; format: cell-based; details: Hepatitis C virus, Huh-7, 72 h, HCV genotype 1a replicon luciferase, 3 days incubation, read-out: LE_1a (EC50, range)
Summary of the method: (§1)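 Replicon inhibition for both genotypes was measured as Renilla luciferase signal (EnduRen, 7.5 μM final, 2 h) after 3-day, 37° C exposure of replicon-bearing HUH-7 cells in 4% FCS DMEM, 0.5% DMSO. The 1b construct carries S1179I; the 1a H77 construct carries P1496L and S2204I. Twenty-point, 3-fold dilutions were fitted four-parametrically for EC50, and CC50 was taken from multiplexed Cell Titer-Blue.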

[2] = test system: HCV genotype 1b (Con1) replicon in HUH-7 cells; assay: HCV replicon luciferase reporter assay, genotype 1b; format: cell-based; details: Hepatitis C virus, Huh-7, 72 h, HCV genotype 1b replicon luciferase, 3 days incubation, read-out: LE_1b (EC50, range)
Summary of the method: as §1

For COc1ccc2c(O[C@@H]3C[C@H]4C(=O)N[C@]5(C(=O)NS(=O)(=O)C6(F)CC6)C[C@H]5/C=C\CC[C@@H](C)C[C@@H](C)[C@H](NC(=O)OC5CCCC5)C(=O)N4C3)nccc2c1 [Compound 4019], the EC50 [1] was less than 5.46 nM and the EC50 [2] was less than 5.46 nM.

Work on COc1ccc2c(O[C@@H]3C[C@H]4C(=O)N[C@]5(C(=O)NS(=O)(=O)C6(F)CC6)C[C@H]5/C=C\CC[C@@H](C)C[C@@H](C)[C@H](NC(=O)O[C@H](C)C(F)(F)F)C(=O)N4C3)nccc2c1 [Compound 4020] yielded an EC50 [1] of less than 5.46 nM and an EC50 [2] of less than 5.46 nM.

In the case of COc1ccc2c(O[C@@H]3C[C@H]4C(=O)N[C@]5(C(=O)NS(=O)(=O)C6(F)CC6)C[C@H]5/C=C\CC[C@@H](C)C[C@@H](C)[C@H](NC(=O)OCC(C)(C)C)C(=O)N4C3)nccc2c1 [Compound 4022], the EC50 [1] is reported as less than 5.46 nM and the EC50 [2] is reported as less than 5.46 nM.

For COc1cc2ccnc(O[C@@H]3C[C@H]4C(=O)N[C@]5(C(=O)NS(=O)(=O)C6(F)CC6)C[C@H]5/C=C\CC[C@@H](C)C[C@@H](C)[C@H](NC(=O)OC(C)(C)C)C(=O)N4C3)c2cc1Cl [Compound 4024, tert-butyl (2R,6S,7R,9R,13aS,14aR,16aS,Z)-2-(7-chloro-6-methoxyisoquinolin-1-yloxy)-14a-(1-fluorocyclopropylsulfonylcarbamoyl)-7,9-dimethyl-5,16-dioxo-1,2,3,5,6,7,8,9,10,11,13a,14,14a,15,16,16a-hexadecahydrocyclopropa[e]pyrrolo[1,2-a][1,4]diazacyclopentadecin-6-ylcarbamate], the EC50 [1] was less than 5.46 nM and the EC50 [2] was less than 5.46 nM.

With CCOc1cnc(O[C@@H]2C[C@H]3C(=O)N[C@]4(C(=O)NS(=O)(=O)C5CC5)C[C@H]4/C=C\CC[C@@H](C)C[C@@H](C)[C@H](NC(=O)OC(C)(C)C(F)(F)F)C(=O)N3C2)c2cccc(Cl)c12 [Compound 4025] the EC50 [1] was less than 5.46 nM and the EC50 [2] was less than 5.46 nM.

COc1ccc2c(O[C@@H]3C[C@H]4C(=O)N[C@]5(C(=O)NS(=O)(=O)C6CC6)C[C@H]5/C=C\CC[C@@H](C)C[C@@H](C)[C@H](NC(=O)OC(C)(C)C)C(=O)N4C3)nc(-c3ccc(OC(C)C)cc3)cc2c1 [Compound 4026, tert-butyl (2R,6S,7R,9R,13aS,14aR,16aS,Z)-14a-(cyclopropylsulfonylcarbamoyl)-2-(3-(4-isopropoxyphenyl)-6-methoxyisoquinolin-1-yloxy)-7,9-dimethyl-5,16-dioxo-1,2,3,5,6,7,8,9,10,11,13a,14,14a,15,16,16a-hexadecahydrocyclopropa[e]pyrrolo[1,2-a][1,4]diazacyclopentadecin-6-ylcarbamate] was tested, and the EC50 [1] was less than 5.46 nM and the EC50 [2] was less than 5.46 nM.

Compound COc1ccc2c(O[C@@H]3C[C@H]4C(=O)N[C@]5(C(=O)NS(=O)(=O)C6CC6)C[C@H]5/C=C\CC[C@@H](C)C[C@@H](C)[C@H](NC(=O)OC(C)(C)C(F)(F)F)C(=O)N4C3)nc(-c3ccc(OC(C)C)cc3)cc2c1 [Compound 4027] has an EC50 ([1]; GETYPE1A) of less than 5.46 nM and an EC50 ([2]; GETYPE1B) of less than 5.46 nM.

COc1ccc2c(O[C@@H]3C[C@H]4C(=O)N[C@]5(C(=O)NS(=O)(=O)C6(F)CC6)C[C@H]5/C=C\CC[C@@H](C)C[C@@H](C)[C@H](NC(=O)OC(C)(C)C(F)(F)F)C(=O)N4C3)ncc(Cl)c2c1 [Compound 4028] showed an EC50 ([1]; GETYPE1A) of less than 5.46 nM and an EC50 ([2]; GETYPE1B) of less than 5.46 nM.

Work on COc1ccc2c(O[C@@H]3C[C@H]4C(=O)N[C@]5(C(=O)NS(=O)(=O)C6(F)CC6)C[C@H]5/C=C\CC[C@@H](C)C[C@@H](C)[C@H](NC(=O)c5ccccc5F)C(=O)N4C3)nccc2c1 [Compound 4029] yielded an EC50 [1] of less than 5.46 nM and an EC50 [2] of less than 5.46 nM.

C[C@@H]1CC/C=C\[C@@H]2C[C@@]2(C(=O)NS(=O)(=O)C2CC2)NC(=O)[C@@H]2C[C@@H](Oc3ncc(OCC4CC4)c4ccccc34)CN2C(=O)[C@@H](NC(=O)CC(C)(C)C(F)(F)F)[C@H](C)C1 [Compound 4030] gave an EC50 [1] of less than 5.46 nM and an EC50 [2] of less than 5.46 nM.

C[C@@H]1CC/C=C\[C@@H]2C[C@@]2(C(=O)NS(=O)(=O)C2CC2)NC(=O)[C@@H]2C[C@@H](Oc3ncc(OC(F)F)c4c(Cl)cccc34)CN2C(=O)[C@@H](NC(=O)CC(C)(C)C(F)(F)F)[C@H](C)C1 [Compound 4031] showed an EC50 [1] of less than 5.46 nM and an EC50 [2] of less than 5.46 nM.

In the case of COc1ccc2c(O[C@@H]3C[C@H]4C(=O)N[C@]5(C(=O)NS(=O)(=O)C6CC6)C[C@H]5/C=C\CC[C@@H](C)C[C@@H](C)[C@H](NC(=O)OC(C)(C)C)C(=O)N4C3)ncnc2c1 [Compound 4032, tert-butyl (2R,6S,7R,9R,13aS,14aR,16aS,Z)-14a-(cyclopropylsulfonylcarbamoyl)-2-(7-methoxyquinazolin-4-yloxy)-7,9-dimethyl-5,16-dioxo-1,2,3,5,6,7,8,9,10,11,13a,14,14a,15,16,16a-hexadecahydrocyclopropa[e]pyrrolo[1,2-a][1,4]diazacyclopentadecin-6-ylcarbamate], the EC50 [1] is reported as less than 5.46 nM and the EC50 [2] is reported as less than 5.46 nM.

For COc1ccc2c(O[C@@H]3C[C@H]4C(=O)N[C@]5(C(=O)NS(=O)(=O)C6CC6)C[C@H]5/C=C\CC[C@H](C)C[C@@H](C)[C@H](NC(=O)OC(C)(C)C)C(=O)N4C3)ncnc2c1 [Compound 4033, tert-butyl (2R,6S,7R,9S,13aS,14aR,16aS,Z)-14a-(cyclopropylsulfonylcarbamoyl)-2-(7-methoxyquinazolin-4-yloxy)-7,9-dimethyl-5,16-dioxo-1,2,3,5,6,7,8,9,10,11,13a,14,14a,15,16,16a-hexadecahydrocyclopropa[e]pyrrolo[1,2-a][1,4]diazacyclopentadecin-6-ylcarbamate], the EC50 [1] was less than 5.46 nM and the EC50 [2] was less than 5.46 nM.

COc1ccc2c(O[C@@H]3C[C@H]4C(=O)N[C@]5(C(=O)NS(=O)(=O)C6CC6)C[C@H]5/C=C\CC[C@@H](C)C[C@@H](C)[C@H](NC(=O)OC(C)(C)C(F)(F)F)C(=O)N4C3)ncnc2c1 [Compound 4034] showed an EC50 ([1]; GETYPE1A) of less than 5.46 nM and an EC50 ([2]; GETYPE1B) of less than 5.46 nM.

In the case of COc1ccc2c(O[C@@H]3C[C@H]4C(=O)N[C@]5(C(=O)NS(=O)(=O)C6(F)CC6)C[C@H]5/C=C\CC[C@@H](C)C[C@@H](C)[C@H](NC(=O)OCC5(C)CC5)C(=O)N4C3)nccc2c1 [Compound 4036], the EC50 [1] is reported as less than 5.46 nM and the EC50 [2] is reported as less than 5.46 nM.

Compound COc1ccc2c(O[C@@H]3C[C@H]4C(=O)N[C@]5(C(=O)NS(=O)(=O)C6(F)CC6)C[C@H]5/C=C\CC[C@@H](C)C[C@@H](C)[C@H](NC(=O)OC5CCCCC5)C(=O)N4C3)nccc2c1 [Compound 4037] has an EC50 [1] of less than 5.46 nM and an EC50 [2] of less than 5.46 nM.

For COc1ccc2c(O[C@@H]3C[C@H]4C(=O)N[C@]5(C(=O)NS(=O)(=O)C6(F)CC6)C[C@H]5/C=C\CC[C@@H](C)C[C@@H](C)[C@H](NC(=O)OC5C[C@@H]6C[C@@H]6C5)C(=O)N4C3)nccc2c1 (stereo partly shown) [Compound 4038], the EC50 [1] was less than 5.46 nM and the EC50 [2] was less than 5.46 nM.

COc1cc2ccnc(O[C@@H]3C[C@H]4C(=O)N[C@]5(C(=O)NS(=O)(=O)C6(C)CC6)C[C@H]5/C=C\CC[C@@H](C)C[C@@H](C)[C@H](NC(=O)OC(C)(C)C(F)(F)F)C(=O)N4C3)c2cc1F [Compound 4039, 1,1-trifluoro-2-methylpropan-2-yl(2R,6S,7R,9R,13aS,14aR,16aS,Z)-2-(7-fluoro-6-methoxyisoquinolin-1-yloxy)-7,9-dimethyl-14a-(1-methylcyclopropylsulfonylcarbamoyl)-5,16-dioxo-1,2,3,5,6,7,8,9,10,11,13a,14,14a,15,16,16a-hexadecahydrocyclopropa[e]pyrrolo[1,2-a][1,4]diazacyclopentadecin-6-ylcarbamate] showed an EC50 [1] of less than 5.46 nM and an EC50 [2] of less than 5.46 nM.

C[C@@H]1CC/C=C\[C@@H]2C[C@@]2(C(=O)NS(=O)(=O)C2CC2)NC(=O)[C@@H]2C[C@@H](Oc3nccc4ccccc34)CN2C(=O)[C@@H](NC(=O)OC(C)(C)C(F)(F)F)[C@H](C)C1 [Compound 4040] was tested, and the EC50 ([1]; GETYPE1A) was less than 5.46 nM and the EC50 ([2]; GETYPE1B) was less than 5.46 nM.

Compound CCOc1cnc(O[C@@H]2C[C@H]3C(=O)N[C@]4(C(=O)NS(=O)(=O)C5(C)CC5)C[C@H]4/C=C\CC[C@@H](C)C[C@@H](C)[C@H](NC(=O)OC(C)(C)C(F)(F)F)C(=O)N3C2)c2ccccc12 [Compound 4041] has an EC50 ([1]; GETYPE1A) of less than 5.46 nM and an EC50 ([2]; GETYPE1B) of less than 5.46 nM.

Work on COc1cc2ccnc(O[C@@H]3C[C@H]4C(=O)N[C@]5(C(=O)NS(=O)(=O)C6(F)CC6)C[C@H]5/C=C\CC[C@@H](C)C[C@@H](C)[C@H](NC(=O)OCC(C)(C)C)C(=O)N4C3)c2cc1Cl [Compound 4042, neopentyl (2R,6S,7R,9R,13aS,14aR,16aS,Z)-2-(7-chloro-6-methoxyisoquinolin-1-yloxy)-14a-(1-fluorocyclopropylsulfonylcarbamoyl)-7,9-dimethyl-5,16-dioxo-1,2,3,5,6,7,8,9,10,11,13a,14,14a,15,16,16a-hexadecahydrocyclopropa[e]pyrrolo[1,2-a][1,4]diazacyclopentadecin-6-ylcarbamate] yielded an EC50 [1] of less than 5.46 nM and an EC50 [2] of less than 5.46 nM.

Work on COc1cc2ccnc(O[C@@H]3C[C@H]4C(=O)N[C@]5(C(=O)NS(=O)(=O)C6(F)CC6)C[C@H]5/C=C\CC[C@@H](C)C[C@@H](C)[C@H](NC(=O)OC(C)(C)C(F)(F)F)C(=O)N4C3)c2cc1Cl [Compound 4043] yielded an EC50 ([1]; GETYPE1A) of less than 5.46 nM and an EC50 ([2]; GETYPE1B) of less than 5.46 nM.

In the case of COc1cc2ccnc(O[C@@H]3C[C@H]4C(=O)N[C@]5(C(=O)NS(=O)(=O)C6(F)CC6)C[C@H]5/C=C\CC[C@H](C)C[C@@H](C)[C@H](NC(=O)OC(C)(C)C(F)(F)F)C(=O)N4C3)c2cc1Cl [Compound 4044], the EC50 ([1]; GETYPE1A) is reported as 4.82 to 103 nM and the EC50 ([2]; GETYPE1B) is reported as less than 5.46 nM.
